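Five concentrations, 48 hours, 96-well plates. TGI denotes the concentration required for complete inhibition of growth.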
Experiments:
Test in all cases: DTP human tumour cell line panel, 48 h
SN12C renal = test system: SN12C renal
SR leukemia = test system: SR leukemia
HOP-62 NSCLC = test system: HOP-62 NSCLC
A498 renal = test system: A498 renal
786-0 renal = test system: 786-0 renal
MOLT-4 leukemia = test system: MOLT-4 leukemia
NCI-H226 lung = test system: NCI-H226 lung
COLO 205 colon = test system: COLO 205 colon
A549 NSCLC = test system: A549 NSCLC
MALME-3M melanoma = test system: MALME-3M melanoma
SK-MEL-5 melanoma = test system: SK-MEL-5 melanoma
HCT-15 colon = test system: HCT-15 colon
SF-539 CNS = test system: SF-539 CNS
HL-60(TB) leukemia = test system: HL-60(TB) leukemia
SW-620 colon = test system: SW-620 colon
SNB-19 CNS = test system: SNB-19 CNS
SF-295 CNS = test system: SF-295 CNS
NCI-H522 lung = test system: NCI-H522 lung
M14 melanoma = test system: M14 melanoma
DU-145 prostate = test system: DU-145 prostate
RPMI-8226 leukemia = test system: RPMI-8226 leukemia
HOP-92 NSCLC = test system: HOP-92 NSCLC
PC-3 prostate = test system: PC-3 prostate
OVCAR-3 ovarian = test system: OVCAR-3 ovarian
LOX IMVI melanoma = test system: LOX IMVI melanoma
SF-268 CNS = test system: SF-268 CNS
ACHN renal = test system: ACHN renal
UO-31 renal = test system: UO-31 renal
NCI-H23 lung = test system: NCI-H23 lung
NCI-H460 lung = test system: NCI-H460 lung
SK-MEL-2 melanoma = test system: SK-MEL-2 melanoma
IGROV1 ovarian = test system: IGROV1 ovarian
OVCAR-4 ovarian = test system: OVCAR-4 ovarian
HT29 colon = test system: HT29 colon
SNB-75 CNS = test system: SNB-75 CNS
RXF 393 renal = test system: RXF 393 renal
MCF7 breast = test system: MCF7 breast
UACC-257 melanoma = test system: UACC-257 melanoma
U251 CNS = test system: U251 CNS
UACC-62 melanoma = test system: UACC-62 melanoma
BT-549 breast = test system: BT-549 breast
SK-MEL-28 melanoma = test system: SK-MEL-28 melanoma
NCI/ADR-RES ovarian = test system: NCI/ADR-RES ovarian
TK-10 renal = test system: TK-10 renal
MDA-MB-231 breast = test system: MDA-MB-231 breast
SK-OV-3 ovarian = test system: SK-OV-3 ovarian
K-562 leukemia = test system: K-562 leukemia
OVCAR-5 ovarian = test system: OVCAR-5 ovarian
HCT-116 colon = test system: HCT-116 colon
HS 578T breast = test system: HS 578T breast
KM12 colon = test system: KM12 colon
T-47D breast = test system: T-47D breast
HCC-2998 colon = test system: HCC-2998 colon
MDA-N = test system: MDA-N
CAKI-1 renal = test system: CAKI-1 renal
OVCAR-8 ovarian = test system: OVCAR-8 ovarian
MDA-MB-435 = test system: MDA-MB-435
EKVX NSCLC = test system: EKVX NSCLC
CCRF-CEM leukemia = test system: CCRF-CEM leukemia

## COc1ccc2c(c1)N=C(N)n1c(nc3ccccc31)S2
SN12C renal
  TGI: > 100 µM
SR leukemia
  TGI: > 100 µM
HOP-62 NSCLC
  TGI: > 100 µM
A498 renal
  TGI: 80.6 µM
786-0 renal
  TGI: 4.39 µM
MOLT-4 leukemia
  TGI: > 100 µM
NCI-H226 lung
  TGI: > 100 µM
COLO 205 colon
  TGI: 26.1 µM
A549 NSCLC
  TGI: > 100 µM
MALME-3M melanoma
  TGI: > 100 µM
SK-MEL-5 melanoma
  TGI: 20.8 µM
HCT-15 colon
  TGI: > 100 µM
SF-539 CNS
  TGI: > 100 µM
HL-60(TB) leukemia
  TGI: > 100 µM
SW-620 colon
  TGI: > 100 µM
SNB-19 CNS
  TGI: > 100 µM
SF-295 CNS
  TGI: > 100 µM
NCI-H522 lung
  TGI: 25.9 µM
M14 melanoma
  TGI: 15.6 µM
DU-145 prostate
  TGI: > 100 µM
RPMI-8226 leukemia
  TGI: > 100 µM
HOP-92 NSCLC
  TGI: 53.2 µM
PC-3 prostate
  TGI: 69.1 µM
OVCAR-3 ovarian
  TGI: 90.4 µM
LOX IMVI melanoma
  TGI: > 100 µM
SF-268 CNS
  TGI: > 100 µM
ACHN renal
  TGI: > 100 µM
UO-31 renal
  TGI: 38.4 µM
NCI-H23 lung
  TGI: 26.2 µM
NCI-H460 lung
  TGI: > 100 µM
SK-MEL-2 melanoma
  TGI: 28.1 µM
IGROV1 ovarian
  TGI: > 100 µM
OVCAR-4 ovarian
  TGI: 38.9 µM
HT29 colon
  TGI: 15.9 µM
SNB-75 CNS
  TGI: > 100 µM
RXF 393 renal
  TGI: 70.5 µM
MCF7 breast
  TGI: > 100 µM
UACC-257 melanoma
  TGI: 38.1 µM
U251 CNS
  TGI: 29.4 µM
UACC-62 melanoma
  TGI: 76.7 µM
BT-549 breast
  TGI: > 100 µM
SK-MEL-28 melanoma
  TGI: > 100 µM
NCI/ADR-RES ovarian
  TGI: 86.7 µM
TK-10 renal
  TGI: > 100 µM
MDA-MB-231 breast
  TGI: 32.3 µM
SK-OV-3 ovarian
  TGI: 95.4 µM
K-562 leukemia
  TGI: > 100 µM
OVCAR-5 ovarian
  TGI: 23.9 µM
HCT-116 colon
  TGI: 15.8 µM
HS 578T breast
  TGI: > 100 µM
KM12 colon
  TGI: 36.2 µM
T-47D breast
  TGI: 76.7 µM
HCC-2998 colon
  TGI: > 100 µM
MDA-N
  TGI: 16 µM

## C=Cc1c(C)c(O)cc2c1-c1ccc(O)c(C)c1CC2
SN12C renal
  TGI: 43.1 µM
SR leukemia
  TGI: 17.7 µM
HOP-62 NSCLC
  TGI: 83.8 µM
A498 renal
  TGI: 27.7 µM
786-0 renal
  TGI: 34 µM
MOLT-4 leukemia
  TGI: 30.6 µM
NCI-H226 lung
  TGI: 43 µM
COLO 205 colon
  TGI: 41.8 µM
A549 NSCLC
  TGI: 55.7 µM
MALME-3M melanoma
  TGI: 45.9 µM
SK-MEL-5 melanoma
  TGI: 33 µM
HCT-15 colon
  TGI: 44.5 µM
SF-539 CNS
  TGI: 29.3 µM
HL-60(TB) leukemia
  TGI: 38.6 µM
SW-620 colon
  TGI: 54.6 µM
SNB-19 CNS
  TGI: 74.5 µM
SF-295 CNS
  TGI: 32.2 µM
NCI-H522 lung
  TGI: 43.1 µM
M14 melanoma
  TGI: 52.5 µM
DU-145 prostate
  TGI: 28.5 µM
CAKI-1 renal
  TGI: 46.2 µM
RPMI-8226 leukemia
  TGI: 56.6 µM
HOP-92 NSCLC
  TGI: 54.5 µM
OVCAR-3 ovarian
  TGI: > 100 µM
OVCAR-8 ovarian
  TGI: 39.4 µM
LOX IMVI melanoma
  TGI: 31.8 µM
SF-268 CNS
  TGI: 63.5 µM
ACHN renal
  TGI: 81.1 µM
UO-31 renal
  TGI: 32.2 µM
NCI-H23 lung
  TGI: 41.3 µM
NCI-H460 lung
  TGI: 45 µM
SK-MEL-2 melanoma
  TGI: 35.5 µM
IGROV1 ovarian
  TGI: 35.6 µM
OVCAR-4 ovarian
  TGI: 92 µM
MDA-MB-435
  TGI: 28.2 µM
HT29 colon
  TGI: 53.2 µM
RXF 393 renal
  TGI: 30.2 µM
EKVX NSCLC
  TGI: 24.3 µM
MCF7 breast
  TGI: 38.9 µM
UACC-257 melanoma
  TGI: 28 µM
U251 CNS
  TGI: 34.3 µM
UACC-62 melanoma
  TGI: 23.1 µM
BT-549 breast
  TGI: 59.7 µM
SK-MEL-28 melanoma
  TGI: 31.5 µM
NCI/ADR-RES ovarian
  TGI: 71.8 µM
TK-10 renal
  TGI: 41.4 µM
CCRF-CEM leukemia
  TGI: 40.6 µM
MDA-MB-231 breast
  TGI: 60.6 µM
SK-OV-3 ovarian
  TGI: 36.2 µM
OVCAR-5 ovarian
  TGI: > 100 µM
HCT-116 colon
  TGI: 28.4 µM
HS 578T breast
  TGI: 21.7 µM
KM12 colon
  TGI: 30 µM
T-47D breast
  TGI: 27.1 µM
HCC-2998 colon
  TGI: 35.3 µM
MDA-N
  TGI: 36.6 µM

## COc1cc(COC(=O)N2CSCC2C(=O)O)c([N+](=O)[O-])cc1OC (stereo not drawn)
SN12C renal
  TGI: > 100 µM
SR leukemia
  TGI: > 100 µM
HOP-62 NSCLC
  TGI: > 100 µM
786-0 renal
  TGI: > 100 µM
MOLT-4 leukemia
  TGI: > 100 µM
NCI-H226 lung
  TGI: > 100 µM
A549 NSCLC
  TGI: > 100 µM
MALME-3M melanoma
  TGI: > 100 µM
SK-MEL-5 melanoma
  TGI: > 100 µM
HCT-15 colon
  TGI: > 100 µM
SF-539 CNS
  TGI: > 100 µM
HL-60(TB) leukemia
  TGI: > 100 µM
SW-620 colon
  TGI: > 100 µM
SNB-19 CNS
  TGI: > 100 µM
SF-295 CNS
  TGI: > 100 µM
M14 melanoma
  TGI: > 100 µM
DU-145 prostate
  TGI: > 100 µM
RPMI-8226 leukemia
  TGI: > 100 µM
HOP-92 NSCLC
  TGI: > 100 µM
PC-3 prostate
  TGI: > 100 µM
OVCAR-3 ovarian
  TGI: > 100 µM
OVCAR-8 ovarian
  TGI: > 100 µM
SF-268 CNS
  TGI: > 100 µM
ACHN renal
  TGI: > 100 µM
UO-31 renal
  TGI: > 100 µM
NCI-H23 lung
  TGI: > 100 µM
NCI-H460 lung
  TGI: > 100 µM
IGROV1 ovarian
  TGI: > 100 µM
MDA-MB-435
  TGI: > 100 µM
HT29 colon
  TGI: > 100 µM
SNB-75 CNS
  TGI: > 100 µM
EKVX NSCLC
  TGI: > 100 µM
MCF7 breast
  TGI: > 100 µM
UACC-257 melanoma
  TGI: > 100 µM
U251 CNS
  TGI: > 100 µM
UACC-62 melanoma
  TGI: > 100 µM
BT-549 breast
  TGI: > 100 µM
NCI/ADR-RES ovarian
  TGI: > 100 µM
CCRF-CEM leukemia
  TGI: > 100 µM
SK-OV-3 ovarian
  TGI: > 100 µM
K-562 leukemia
  TGI: > 100 µM
OVCAR-5 ovarian
  TGI: > 100 µM
HCT-116 colon
  TGI: > 100 µM
HS 578T breast
  TGI: > 100 µM
KM12 colon
  TGI: > 100 µM
T-47D breast
  TGI: > 100 µM
HCC-2998 colon
  TGI: > 100 µM
MDA-N
  TGI: > 100 µM

— PubChem BioAssay (NCI)
